Assay results published in patent publication US12568972B2, “Pyridazinol compounds and derivatives, preparation methods, herbicidal compositions and applications thereof” (Qingdao Kingagroot Chemical Compound Co., Ltd., priority 2018, dated 2026).

System: Chenopodiaceae
Assay: Post-emergence test, weed control effect
Assay type: in vivo
Conditions: Dose 3000 g/ha, after 3 weeks
Summary of the method: (§1)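 Weeds grown from seed in soil-filled pots in a greenhouse were sprayed at the 2-3 leaf stage, 2-3 weeks after sowing, with compound in acetone/Tween-80/water plus 80% vegetable oil methyl ester synergist at 1500 g/ha. Fresh-weight inhibition was scored on a 0-10 scale after 3 weeks.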

Row | Structure (SMILES) | weed control effect (activity level), Chenopodiaceae | weed control effect, Chenopodiaceae (activity level)
1 | N#Cc1ncccc1-c1nnc(C(F)(F)F)cc1O [Compound 979] | 10 | 
2 | CCCCC(=O)Oc1cc(C(F)(F)F)nnc1-c1ccc(Cl)c(Cl)c1 [Compound 1-7] |  | 10
3 | Oc1cc(C(F)(F)F)nnc1-c1ccc2occc2c1 [Compound 595] | 10 | 
4 | CC(C)n1nccc1-c1nnc(C(F)(F)F)cc1O [Compound 828] | 10 | 
5 | Oc1cc(C(F)(F)F)nnc1-c1cnc(F)c(F)c1 [Compound 988] | 10 | 
6 | O=C(Cc1ccccc1)Oc1cc(C(F)(F)F)nnc1-c1ccc(F)c(F)c1 [Compound 1-94] |  | 10
7 | Oc1cc(C(F)(F)F)nnc1-c1ccc(Cl)c(Cl)c1Cl [Compound 753] | 10 | 
8 | CC(Cl)C(=O)Oc1cc(C(F)(F)F)nnc1-c1ccc(C(F)(F)F)cc1 (stereo not drawn) [Compound 1-22] |  | 10
9 | CC(=O)CC(=O)Oc1cc(C(F)(F)F)nnc1-c1ccc(F)cc1 [Compound 1-76] |  | 10
10 | Oc1cc(CF)nnc1-c1cccnc1F [Compound 1076] | 10 | 
11 | Oc1cc(C(F)(F)F)nnc1-c1cc(Cl)cnc1F [Compound 998] | 10 | 
12 | Oc1cc(C(F)(F)F)nnc1-c1ccc(Cl)c(F)c1 [Compound 745] | 10 | 
13 | Cn1ncc(Cl)c1-c1nnc(C(F)(F)F)cc1O [Compound 805] | 10 | 
14 | Oc1cc(C(F)(F)F)nnc1-c1cccc2cnccc12 [Compound 636] | 10 | 
15 | Oc1cc(C(F)(F)F)nnc1-c1ccnn1-c1ccccc1 [Compound 832] | 10 | 
16 | O=C(Oc1cc(C(F)(F)F)nnc1-c1ccc(F)c(F)c1)c1ccc2[nH]ccc2c1 [Compound 1-115] |  | 10
17 | O=S(=O)(Oc1cc(C(F)(F)F)nnc1-c1ccc(F)c(F)c1)c1cc(F)c(Br)cc1F [Compound 1-138] |  | 10
18 | CC(C)=Cc1nnc(C(F)(F)F)cc1O [Compound 1523] | 10 | 

System: Rorippa indica
Assay: Post-emergence test, weed control effect
Assay type: in vivo
Conditions: Dose 3000 g/ha, after 3 weeks
Summary of the method: as §1

Row | Structure (SMILES) | weed control effect (activity level), Rorippa indica | weed control effect, Rorippa indica (activity level)
19 | N#Cc1ncccc1-c1nnc(C(F)(F)F)cc1O [Compound 979] | 10 | 
20 | CCCCC(=O)Oc1cc(C(F)(F)F)nnc1-c1ccc(Cl)c(Cl)c1 [Compound 1-7] |  | 10
21 | Oc1cc(C(F)(F)F)nnc1-c1ccc2occc2c1 [Compound 595] | 10 | 
22 | CC(C)n1nccc1-c1nnc(C(F)(F)F)cc1O [Compound 828] | 10 | 
23 | Oc1cc(C(F)(F)F)nnc1-c1cnc(F)c(F)c1 [Compound 988] | 10 | 
24 | O=C(Cc1ccccc1)Oc1cc(C(F)(F)F)nnc1-c1ccc(F)c(F)c1 [Compound 1-94] |  | 10
25 | Oc1cc(C(F)(F)F)nnc1-c1ccc(Cl)c(Cl)c1Cl [Compound 753] | 10 | 
26 | CC(Cl)C(=O)Oc1cc(C(F)(F)F)nnc1-c1ccc(C(F)(F)F)cc1 (stereo not drawn) [Compound 1-22] |  | 10
27 | CC(=O)CC(=O)Oc1cc(C(F)(F)F)nnc1-c1ccc(F)cc1 [Compound 1-76] |  | 10
28 | Oc1cc(CF)nnc1-c1cccnc1F [Compound 1076] | 10 | 
29 | Oc1cc(C(F)(F)F)nnc1-c1cc(Cl)cnc1F [Compound 998] | 10 | 
30 | Oc1cc(C(F)(F)F)nnc1-c1ccc(Cl)c(F)c1 [Compound 745] | 10 | 
31 | Cn1ncc(Cl)c1-c1nnc(C(F)(F)F)cc1O [Compound 805] | 10 | 
32 | Oc1cc(C(F)(F)F)nnc1-c1cccc2cnccc12 [Compound 636] | 10 | 
33 | Oc1cc(C(F)(F)F)nnc1-c1ccnn1-c1ccccc1 [Compound 832] | 10 | 
34 | O=C(Oc1cc(C(F)(F)F)nnc1-c1ccc(F)c(F)c1)c1ccc2[nH]ccc2c1 [Compound 1-115] |  | 10
35 | O=S(=O)(Oc1cc(C(F)(F)F)nnc1-c1ccc(F)c(F)c1)c1cc(F)c(Br)cc1F [Compound 1-138] |  | 10
36 | CC(C)=Cc1nnc(C(F)(F)F)cc1O [Compound 1523] | 10 | 

System: Veronica polita
Assay: Post-emergence test, weed control effect
Assay type: in vivo
Conditions: Dose 3000 g/ha, after 3 weeks
Summary of the method: as §1

Row | Structure (SMILES) | weed control effect (activity level), Veronica polita | weed control effect, Veronica polita (activity level)
37 | N#Cc1ncccc1-c1nnc(C(F)(F)F)cc1O [Compound 979] | 10 | 
38 | CCCCC(=O)Oc1cc(C(F)(F)F)nnc1-c1ccc(Cl)c(Cl)c1 [Compound 1-7] |  | 10
39 | Oc1cc(C(F)(F)F)nnc1-c1ccc2occc2c1 [Compound 595] | 10 | 
40 | CC(C)n1nccc1-c1nnc(C(F)(F)F)cc1O [Compound 828] | 10 | 
41 | Oc1cc(C(F)(F)F)nnc1-c1cnc(F)c(F)c1 [Compound 988] | 10 | 
42 | O=C(Cc1ccccc1)Oc1cc(C(F)(F)F)nnc1-c1ccc(F)c(F)c1 [Compound 1-94] |  | 10
43 | Oc1cc(C(F)(F)F)nnc1-c1ccc(Cl)c(Cl)c1Cl [Compound 753] | 10 | 
44 | CC(Cl)C(=O)Oc1cc(C(F)(F)F)nnc1-c1ccc(C(F)(F)F)cc1 (stereo not drawn) [Compound 1-22] |  | 10
45 | CC(=O)CC(=O)Oc1cc(C(F)(F)F)nnc1-c1ccc(F)cc1 [Compound 1-76] |  | 10
46 | Oc1cc(CF)nnc1-c1cccnc1F [Compound 1076] | 10 | 
47 | Oc1cc(C(F)(F)F)nnc1-c1cc(Cl)cnc1F [Compound 998] | 10 | 
48 | Oc1cc(C(F)(F)F)nnc1-c1ccc(Cl)c(F)c1 [Compound 745] | 10 | 
49 | Cn1ncc(Cl)c1-c1nnc(C(F)(F)F)cc1O [Compound 805] | 10 | 
50 | Oc1cc(C(F)(F)F)nnc1-c1cccc2cnccc12 [Compound 636] | 10 | 
51 | Oc1cc(C(F)(F)F)nnc1-c1ccnn1-c1ccccc1 [Compound 832] | 10 | 
52 | O=C(Oc1cc(C(F)(F)F)nnc1-c1ccc(F)c(F)c1)c1ccc2[nH]ccc2c1 [Compound 1-115] |  | 10
53 | O=S(=O)(Oc1cc(C(F)(F)F)nnc1-c1ccc(F)c(F)c1)c1cc(F)c(Br)cc1F [Compound 1-138] |  | 10
54 | CC(C)=Cc1nnc(C(F)(F)F)cc1O [Compound 1523] | 10 | 

System: Amaranthus retroflexus
Assay: Post-emergence test, weed control effect
Assay type: in vivo
Conditions: Dose 3000 g/ha, after 3 weeks
Summary of the method: as §1

Row | Structure (SMILES) | weed control effect (activity level), Amaranthus retroflexus | weed control effect, Amaranthus retroflexus (activity level)
55 | N#Cc1ncccc1-c1nnc(C(F)(F)F)cc1O [Compound 979] | 10 | 
56 | CCCCC(=O)Oc1cc(C(F)(F)F)nnc1-c1ccc(Cl)c(Cl)c1 [Compound 1-7] |  | 10
57 | Oc1cc(C(F)(F)F)nnc1-c1ccc2occc2c1 [Compound 595] | 10 | 
58 | CC(C)n1nccc1-c1nnc(C(F)(F)F)cc1O [Compound 828] | 10 | 
59 | Oc1cc(C(F)(F)F)nnc1-c1cnc(F)c(F)c1 [Compound 988] | 10 | 
60 | O=C(Cc1ccccc1)Oc1cc(C(F)(F)F)nnc1-c1ccc(F)c(F)c1 [Compound 1-94] |  | 10
61 | Oc1cc(C(F)(F)F)nnc1-c1ccc(Cl)c(Cl)c1Cl [Compound 753] | 10 | 
62 | CC(Cl)C(=O)Oc1cc(C(F)(F)F)nnc1-c1ccc(C(F)(F)F)cc1 (stereo not drawn) [Compound 1-22] |  | 10
63 | CC(=O)CC(=O)Oc1cc(C(F)(F)F)nnc1-c1ccc(F)cc1 [Compound 1-76] |  | 10
64 | Oc1cc(CF)nnc1-c1cccnc1F [Compound 1076] | 10 | 
65 | Oc1cc(C(F)(F)F)nnc1-c1cc(Cl)cnc1F [Compound 998] | 10 | 
66 | Oc1cc(C(F)(F)F)nnc1-c1ccc(Cl)c(F)c1 [Compound 745] | 10 | 
67 | Cn1ncc(Cl)c1-c1nnc(C(F)(F)F)cc1O [Compound 805] | 10 | 
68 | Oc1cc(C(F)(F)F)nnc1-c1cccc2cnccc12 [Compound 636] | 10 | 
69 | Oc1cc(C(F)(F)F)nnc1-c1ccnn1-c1ccccc1 [Compound 832] | 10 | 
70 | O=C(Oc1cc(C(F)(F)F)nnc1-c1ccc(F)c(F)c1)c1ccc2[nH]ccc2c1 [Compound 1-115] |  | 10
71 | O=S(=O)(Oc1cc(C(F)(F)F)nnc1-c1ccc(F)c(F)c1)c1cc(F)c(Br)cc1F [Compound 1-138] |  | 10
72 | CC(C)=Cc1nnc(C(F)(F)F)cc1O [Compound 1523] | 10 | 
